We go through two compounds from US6054437A, “Method for inducing death of neoplastic cells using piperazine derivatives” (Hitachi Chemical Research Center, Inc., priority 1997, dated 2000).

The subject of one series is KB-3 (sensitive cells). The experiment in a line: Drug accumulation assay ([3H]-vinblastine), sensitive cells. It is filed as cell-based, human. As to conditions: KB-3, control (vinblastine alone). Here is the method:
(§1) 1. Drug Accumulation Assays
(§2) where the effect of NCO-700 on the uptake of radioactive (^3 H)-vinblastine, an anticancer drug, is measured in cultured cancer cells, that are both drug-resistant and drug-sensitive (Reference 3).
(§3) In the first two in vitro assays, the drug accumulation assay and the cell survival assay, a human pharyngeal carcinoma cell line (KB-V-1) which is highly resistant to anticancer drugs was used. This cell line was developed by Drs. Ira Pastan and Michael Gottesman of the National Cancer Institute, by step-wise selection in colchicine of drug-resistant cells. The control cancer cell line (KB-3), from which the resistant cell lines were derived, is sensitive to anticancer drugs. The resistant KB-V-1 cell line is approximately 275 times more resistant to vinblastine than the sensitive KB-3 line and has a greatly amplified mdr gene which generates the observed resistance.
Measurement of [^3 H]-vinblastine accumulation was performed by the methods developed in the laboratory of Drs. Gottesman and Pastan (Fojo et al., Cancer Res. 45:3002-3007, 1985). […] After an additional 30 min, the medium was removed, the plates were washed three times in ice-cold phosphate-buffered saline, the cells were detached with trypsin, and radioactivity determined by scintillation counting.

Series [1] deals with KB-V-1 (resistant). The conditions noted are these: cited from earlier work.
The conditions of series [2]: in vivo; cited from earlier work.
For another series, the system named is KB-3 (sensitive). The series is described as follows: Cell survival assay with vinblastine, sensitive cells. The format is cell-based, human. As to conditions: Homo sapiens, read-out: vinblastine to kill 50% of cells. Here is the method: (§4) where the effect of NCO-700 to enhance cancer cell killing by vinblastine was measured.
as §3
(§5) The cell survival experiments shown above were performed by plating KB-3 (sensitive) and KB-V-1 (resistant) cells in 32 mm well plastic dishes at a cell density of 300-500 cells per well. Vinblastine and NCO-700 were added 16 hours after the initial cell plating. After 10 days of incubation at 37°, cell colonies were stained and counted.

The next series has as its system KB-V-1 (resistant cells). The series is described as follows: Drug accumulation assay ([3H]-vinblastine), resistant cells. The format is cell-based, human. As to the method:
as §1, §2
In the first two in vitro assays, the drug accumulation assay and the cell survival assay, a human pharyngeal carcinoma cell line (KB-V-1) which is highly resistant to anticancer drugs was used. This cell line was developed by Drs. Ira Pastan and Michael Gottesman of the National Cancer Institute, by step-wise selection in colchicine of drug-resistant cells. The control cancer cell line (KB-3), from which the resistant cell lines were derived, is sensitive to anticancer drugs.
Measurement of [^3 H]-vinblastine accumulation was performed by the methods developed in the laboratory of Drs. […] In this method, KB-V-1 and KB-3 cells were plated in 10% fetal bovine serum at a density of 3×10^5 cells per well in 24-well Costar plates. The next day, the growth medium was replaced with Dulbecco's modified Eagle's medium with or without (control cells) 20 μM NCO-700. After ten minutes, the medium was removed and replaced with assay medium (0.5 ml) containing 0.1 μCi, (13 pmol) [^3 H]-vinblastine in the presence or absence of 20 μM NCO-700. After an additional 30 min, the medium was removed, the plates were washed three times in ice-cold phosphate-buffered saline, the cells were detached with trypsin, and radioactivity determined by scintillation counting.

The test system of series [3] is KB-V-1 (resistant). The experiment in a line: Cell survival assay with vinblastine, resistant cells. It is filed as cell-based, human. As to conditions: Homo sapiens. As to the method:
as §4, §3, §5

Series [4] has as its system thiol protease, especially calcium-activated neutral protease (CANP). As to conditions: cited from earlier work.

≈ marks a conversion by molar mass, not a printed value. Read-outs that look alike come from different tables or passages of the source.

Consider `CC[C@]1(O)C[C@@H]2CN(CCc3c([nH]c4ccccc34)[C@@](C(=O)OC)(c3cc4c(cc3OC)N(C)[C@H]3[C@@](O)(C(=O)OC)[C@H](OC(C)=O)[C@]5(CC)C=CCN6CC[C@]43[C@@H]65)C2)C1` [vinblastine, reference compound], for which the vinblastine accumulation in the series on KB-3 (sensitive cells) was 2.99 ± 0.12 pmole vinblastine/mg protein; with KB-V-1 (resistant cells) (KB-V-1, control (vinblastine alone)), 0.29 ± 0.03 pmole vinblastine/mg protein. Further, in the series on KB-V-1 (resistant) [1], the “resistance to vinblastine, KB-V-1 versus KB-3” value is “approximately 275 times”. The side effects result in series [2] was “inevitable side effects such as hair loss, weight loss, and liver and kidney damage”. Moreover, the IC50 with KB-3 (sensitive) worked out at 0.0032 µg/mL (≈ 0.00395 µM); in the series with KB-V-1 (resistant) [3] (KB-V1, read-out: level of vinblastine needed to kill 50% of the tumor cells) it was 0.825 µg/mL (≈ 1.02 µM); in the series on KB-V-1 (resistant) [3] (KB-V1, read-out: vinblastine to kill 50% of cells), 0.792 µg/mL (≈ 0.977 µM). For the same compound, the “accumulation of vinblastine (in words)” value in the series on KB-V-1 (resistant cells) (drug-resistant cell line) is listed as “severely restricted”.
Take `CCOC(=O)[C@H]1O[C@@H]1C(=O)N[C@@H](CC(C)C)C(=O)NCCC(C)C` [EST]: the “thiol protease inhibitory activity” value in series [4] is given as “thiol protease inhibitory activity, especially calcium-activated neutral protease (CANP) inhibitory activity”.
